Assay results taken from patent US20170348258A1, “3-Amino Benzamide Derivative Serving As B-Lactam Auxiliary Antibiotic, Preparation Method and Use Thereof” (THE HONG KONG POLYTECHNIC UNIVERSITY, priority 2014, published 2017).
Values after ≈ are worked out from the molar mass of the structure shown. Where two headings read alike, the source gives them in different places.

Tests used:
B. subtilis 168 = test: Antibacterial susceptibility test (MIC, microbroth dilution); type: cell-based; settings: 18 hours at 37° C., >90% inhibition of bacterial growth, read-out: MIC, BS 168
From the text: (§1) The bacterial strains used in microbial susceptibility test were E. coli, S. aureus 29213 and B. subtilis 168. E. coli and S. aureus 29213 were obtained from the laboratory of the Hong Kong Polytechnic University. B. subtilis 168 was purchased from American Type Culture Collection (USA). The mammalian cell lines L929 (mouse peritoneal fibroblast), LCC6 (a wild type breast cancer cell line), LCC6MDR (P-gp over-expressed breast cancer cell line) were stocks in our department. Nutrient Agar, tryptone and yeast extract were purchased from Oxoid Limited (Nepean, Ontario, Canada). Luria-Bertani (LB) medium was prepared from 2 g tryptone, 1 g yeast extract, and 2 g sodium chloride in 200 ml deionized water and sterilized. Müller-Hinton broth (MHB), cation-adjusted Müller-Hinton broth (MHB) and trypticase soy broth (TSB) for microbial susceptibility test were purchased from Becton, Dickinson and Company (New Jersey, USA). A microplate reader (Bio-Rad Laboratories Model 680) is used to measure bacterial growth and cytotoxicity. An Olympus FSX100® Bio Imaging Navigator Microscope was used to observe the morphology of B. subtilis cell.
(§2) The minimum inhibitory concentration (MIC) of each compound was determined using microbroth dilution method according to the National Committee for Clinical Laboratory Standards (CLSI) guidelines. All Compounds were dissolved in DMSO and diluted in a serial two-fold manner. A single colony of bacterial strain on a TSB agar plate was inoculated in 5 mL MHB or CA-MHB. The bacterial cells were incubated at 37° C. until the optimal density (OD600) of the growing cells reached 1.0. The cells were then diluted to a final concentration of approximately 5×10^5 CFU/mL in a serial two-fold manner in a 96-well microtiter plate (Iwaki, Japan). Compound 3 and PC190723 were used as positive controls. […] Table 1 below summarizes the MIC of all synthesized compounds.

E. coli = test: as above; type: cell-based; settings: 18 hours at 37° C., >90% inhibition of bacterial growth
From the text: as §1, §2

S. aureus 29213 = test: as above; type: cell-based; settings: 18 hours at 37° C., >90% inhibition of bacterial growth
From the text: as §1, §2

MRSA strain USA300#757 = test: Fractional Inhibitory Concentration Index (FICI) determination; type: cell-based, S. aureus
Experimental: The bacterial strains used in this study were clinically isolated MRSA strains USA300#757 and #2960 which were obtained from our laboratory. Determination of the Fractional Inhibitory Concentration Index (FICI) was adopted by the Müller-Hinton broth (MHB) dilution method as previously described. Twelve serial two-fold dilutions of PC190723, F332 and F361 were prepared in the 96-well microplate with concentration ranging from 512 to 0.25 μg/mL. […] Lastly, the compounds and the β-lactams were mixed at a 1:1 ratio and subjected to two-fold dilution as described previously. Each microplate well contained 100 μL of MHB supplemented with compounds alone, β-lactams alone or the mixture of compounds and β-lactams. Overnight cultures of S. aureus in the Müller-Hinton broth was diluted to OD595 of 0.08-0.1 in saline and added in each of the microplate well. The plates were incubated at 37° C. for 20 h. All tests were performed in duplicate and the inhibition of bacterial growth was determined by visualization. The FICI of compounds and β-lactams were calculated as followed: FICI=(MIC of combination of compound and β-lactam/MIC of compound alone)+(MIC of combination of compound and β-lactam/MIC of β-lactam alone).

MRSA strain USA300#2960 = test: as above; type: cell-based, S. aureus
Experimental: The bacterial strains used in this study were clinically isolated MRSA strains USA300#757 and #2960 which were obtained from our laboratory. Determination of the Fractional Inhibitory Concentration Index (FICI) was adopted by the Müller-Hinton broth (MHB) dilution method as previously described. Twelve serial two-fold dilutions of PC190723, F332 and F361 were prepared in the 96-well microplate with concentration ranging from 512 to 0.25 μg/mL. A series of two-fold dilutions of ampicillin, cloxacillin and cefuroxime were also prepared following the same procedure. Lastly, the compounds and the β-lactams were mixed at a 1:1 ratio and subjected to two-fold dilution as described previously. Each microplate well contained 100 μL of MHB supplemented with compounds alone, β-lactams alone or the mixture of compounds and β-lactams. Overnight cultures of S. aureus in the Müller-Hinton broth was diluted to OD595 of 0.08-0.1 in saline and added in each of the microplate well. The plates were incubated at 37° C. for 20 h. All tests were performed in duplicate and the inhibition of bacterial growth was determined by visualization. The FICI of compounds and β-lactams were calculated as followed: FICI=(MIC of combination of compound and β-lactam/MIC of compound alone)+(MIC of combination of compound and β-lactam/MIC of β-lactam alone).

Compound	MIC (B. subtilis 168; Bacillus subtilis, 168) [µM]	MIC (E. coli; Escherichia coli) [µM]	MIC (S. aureus 29213; Staphylococcus aureus, 29213) [µM]	MIC (B. subtilis 168) [µM]	MIC (E. coli) [µM]	MIC (S. aureus 29213) [µM]	further results
CCCCCCCCN(C)c1ccc(F)c(C(N)=O)c1F [Compound F409, 2,6-difluoro-3-(methyl(octyl)amino)benzamide]	25 (≈ 7.46 µg/mL)	> 100	12.5 (≈ 3.73 µg/mL)				
CCCCCOc1cccc(CNc2ccc(F)c(C(N)=O)c2F)c1 [Compound F376, 2,6-difluoro-3-((3′-(pentyloxy)benzyl)amino)benzamide]				12.5 (≈ 4.35 µg/mL)	>100	50 (≈ 17.4 µg/mL)	
CCCCCCCNc1ccc(F)c(C(N)=O)c1F [Compound F391, 2,6-difluoro-3-(heptylamino)benzamide]	50 (≈ 13.5 µg/mL)	> 100	50 (≈ 13.5 µg/mL)				
CCCCCCCCC(=O)Nc1ccc(F)c(C(N)=O)c1F [Compound F368, 2,6-difluoro-3-nonanamidobenzamide]	> 100	> 100	> 100				
NC(=O)c1c(F)ccc(N2CCCCC2)c1F [Compound F358, 2,6-difluoro-3-(piperidin-1-yl)benzamide]	> 100	> 100	> 100				
CCCCCCCCCNc1cccc(C(N)=O)c1 [Compound F411, 3-(nonylamino)benzamide]	6.25 (≈ 1.64 µg/mL)	> 100	> 100				
NC(=O)c1c(F)ccc(N(Cc2ccc(F)c(F)c2)Cc2ccc(F)c(F)c2)c1F [Compound F363, 3-(bis(3′,4′-difluorobenzyl)amino)-2,6-difluorobenzamide]				>100	>100	50 (≈ 21.2 µg/mL)	
NC(=O)c1c(F)ccc(N(Cc2c(F)cccc2F)Cc2c(F)cccc2F)c1F [Compound F367, 3-(bis(2′,6′-difluorobenzyl)amino)-2,6-difluorobenzamide]				>100	>100	>100	
CCCCCCCCCNc1ccc(F)c(C(N)=O)c1 [Compound F342, 2-fluoro-5-(nonylamino)benzamide]	25 (≈ 7.01 µg/mL)	> 100	> 100				
NC(=O)c1c(F)ccc(N2CCCC2)c1F [Compound F357, 2,6-difluoro-3-(pyrrolidin-1-yl)benzamide]	> 100	> 100	> 100				
CCCCOCCCCNc1ccc(F)c(C(N)=O)c1F [Compound F350, 3-((4′-butoxy)butylamino)-2,6-difluorobenzamide]	> 100	> 100	> 100				
CCCCCCCCCNc1cc(C(N)=O)c(F)cc1F [Compound F345, 2,4-difluoro-5-(nonylamino)benzamide]	100 (≈ 29.8 µg/mL)	> 100	> 100				
CCCCCC/C=C\CNc1ccc(F)c(C(N)=O)c1F [Compound F370, (Z)-2,6-difluoro-3-(2-nonenylamino)benzamide]	6.25 (≈ 1.85 µg/mL)	> 100	25 (≈ 7.41 µg/mL)				
CCCCCCCCN(CC)c1ccc(F)c(C(N)=O)c1F [Compound F410, 3-(ethyl(octyl)amino)-2,6-difluorobenzamide]	25 (≈ 7.81 µg/mL)	> 100	50 (≈ 15.6 µg/mL)				
CCCCCCCCCCNc1ccc(F)c(C(N)=O)c1F [Compound F334, 3-(decylamino)-2,6-difluorobenzamide]	> 100	> 100	> 100				
NC(=O)c1c(F)ccc(NCc2cccc(OCc3ccc(C(F)(F)F)cc3)c2)c1F [Compound F378, 2,6-difluoro-3-((3′-((4″-(trifluoromethyl)benzyl)oxy)benzyl)amino)benzamide]				>100	>100	>100	
CCCCCCCCN(C)c1cccc(C(N)=O)c1 [Compound F414, 3-(methyl(octyl)amino)benzamide]	> 100	> 100	> 100				
CCCCCCCCNc1ccc(F)c(C(N)=O)c1F [Compound F333, 2,6-difluoro-3-(octylamino)benzamide]	6.25 (≈ 1.78 µg/mL)	> 100	50 (≈ 14.2 µg/mL)				
CCCCOc1cccc(CNc2ccc(F)c(C(N)=O)c2F)c1 [Compound F373, 3-((3′-butoxybenzyl)amino)-2,6-difluorobenzamide]				25 (≈ 8.36 µg/mL)	>100	50 (≈ 16.7 µg/mL)	
NC(=O)c1c(F)ccc(NCc2ccc(F)cc2F)c1F [Compound F364, 3-((2′,4′-difluorobenzyl)amino)-2,6-difluorobenzamide]				>100	>100	>100	
NC(=O)c1c(F)ccc(OCc2nc3cc(Cl)cnc3s2)c1F [PC190723, reference compound]				0.5 (≈ 0.178 µg/mL)	>2	0.5 (≈ 0.178 µg/mL)	FICI with Cefotaxime (MRSA strain USA300#757): 1.02; FICI with Meropenem (MRSA strain USA300#757): 0.31; FICI with Cefotaxime (MRSA strain USA300#2960): 1.03; FICI with Meropenem (MRSA strain USA300#2960): 0.63
NC(=O)c1c(F)ccc(NCc2c(F)cccc2F)c1F [Compound F366, 3-((2′,6′-difluorobenzyl)amino)-2,6-difluorobenzamide]				>100	>100	>100	
NC(=O)c1c(F)ccc(N(Cc2ccc(F)cc2F)Cc2ccc(F)cc2F)c1F [Compound F365, 3-(bis(2′,4′-difluorobenzyl)amino)-2,6-difluorobenzamide]				<50	>100	>100	
CCCCCCCCCNc1c(Br)cc(F)c(C(N)=O)c1F [Compound F371, 4-bromo-2,6-difluoro-3-(nonylamino)benzamide]	6.25 (≈ 2.36 µg/mL)	> 100	> 100				
CCC(C)Oc1cccc(CNc2ccc(F)c(C(N)=O)c2F)c1 (stereo not shown) [Compound F377, 3-((3′-(sec-butoxy)benzyl)amino)-2,6-difluorobenzamide]				>100	>100	>100	
CC(C)=CCC/C(C)=C/CNc1ccc(F)c(C(N)=O)c1F [Compound F369, (E)-3-((3,7-dimethyl-2,6-octadien-1-yl)amino)-2,6-difluorobenzamide]	50 (≈ 15.4 µg/mL)	> 100	> 100				
CCCCCCCCCN(C)c1cccc(C(N)=O)c1 [Compound F413, 3-(methyl(nonyl)amino)benzamide]	> 100	> 100	> 100				
CCCCCCCCNc1cccc(C(N)=O)c1 [Compound F412, 3-(octylamino)benzamide]	25 (≈ 6.21 µg/mL)	> 100	> 100				
NC(=O)c1c(F)ccc(NCc2ccc(F)c(F)c2)c1F [Compound F362, 3-((3′,4′-difluorobenzyl)amino)-2,6-difluorobenzamide]				>100	>100	>100	
